Measured values published in ChEMBL document CHEMBL3588750 (Medchemcomm, 2014).

What was measured:
[1] = molecular target: Somatostatin receptor type 5 (Homo sapiens, UniProt P35346); test: Inhibition of radiolabeled somatostatin-14 binding to human recombinant SSTR5
[2] = molecular target: Somatostatin receptor type 4 (Homo sapiens, UniProt P31391); test: Inhibition of radiolabeled somatostatin-14 binding to human recombinant SSTR4
Somatostatin receptor type 4, sequence (P31391 whole entry): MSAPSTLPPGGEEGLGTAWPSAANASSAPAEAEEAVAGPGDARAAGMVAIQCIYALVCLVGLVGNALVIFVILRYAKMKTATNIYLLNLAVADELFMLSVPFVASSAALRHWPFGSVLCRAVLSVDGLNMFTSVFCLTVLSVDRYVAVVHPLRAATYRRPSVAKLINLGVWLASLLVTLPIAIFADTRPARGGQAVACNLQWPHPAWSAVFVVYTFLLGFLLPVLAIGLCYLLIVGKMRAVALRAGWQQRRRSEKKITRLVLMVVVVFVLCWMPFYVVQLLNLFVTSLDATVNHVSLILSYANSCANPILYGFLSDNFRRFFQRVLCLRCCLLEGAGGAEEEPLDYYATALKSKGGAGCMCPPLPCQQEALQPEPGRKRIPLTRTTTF

Somatostatin receptor type 5, sequence (P35346 whole entry): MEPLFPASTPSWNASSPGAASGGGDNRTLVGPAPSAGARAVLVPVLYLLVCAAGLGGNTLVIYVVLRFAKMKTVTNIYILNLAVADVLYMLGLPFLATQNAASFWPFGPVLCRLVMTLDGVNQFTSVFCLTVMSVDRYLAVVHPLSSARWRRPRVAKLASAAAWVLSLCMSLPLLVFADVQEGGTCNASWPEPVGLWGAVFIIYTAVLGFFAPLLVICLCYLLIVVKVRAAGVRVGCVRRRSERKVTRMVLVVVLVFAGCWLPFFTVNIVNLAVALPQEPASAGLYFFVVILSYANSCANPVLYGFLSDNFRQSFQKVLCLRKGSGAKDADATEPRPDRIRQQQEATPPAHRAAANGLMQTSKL

Row | Ki ([1]; read-out: Ki) | Ki [2] | Ki ([2]; read-out: Ki) | SMILES | Ki [1]
1 | 34 µM | Not Active |  | NCCCCC[C@@H]1[C@@H](O)[C@H](O)[C@@H](O)CN1Cc1ccc2ccccc2c1 | 
2 | 2 µM |  | 1.9 µM | NCCCCC[C@@H]1[C@@H](OCc2ccccc2)[C@H](OCc2ccccc2)[C@@H](OCc2ccccc2)CN1Cc1ccc2ccccc2c1 | 
3 | 7.7 µM |  | 5.4 µM | CC(=O)O[C@H]1[C@H](OC(C)=O)[C@@H](CCCCCN)N(Cc2ccc3ccccc3c2)C[C@@H]1OC(C)=O | 

Row | SMILES | Ki ([1]; read-out: Ki) | Ki [2] | Ki ([2]; read-out: Ki) | Ki [1]
4 | NCCCCCOC[C@@H]1[C@@H](O)[C@H](O)[C@@H](O)CN1CCc1c[nH]c2ccccc12 |  |  | 3.2 µM | Not Active
